Values after ≈ are worked out from the molar mass of the structure shown.
Each compound was assayed on HCT-116, MCF-7, HEPG-2 (assay: Cytotoxic screening, statements over the three cell lines). Details: Homo sapiens; HCT-116, MCF-7, HEPG-2 together; read-out: IC50, range over the three cell lines.
Format: cell-based
Description: Human colon carcinoma (HCT-116), human hepatocellular carcinoma (HEPG-2), adenocarcinomic human alveolar basal epithelial cell (A-549), and human breast adenocarcinoma (MCF-7) cell lines were obtained from the American Type Culture Collection (ATCC, Rockville, MD). The cells were grown on RPMI-1640 medium supplemented with 10 % inactivated fetal calf serum and 50 µg/ml gentamycin. The cells were maintained at 37 °C in a humidified atmosphere with 5 % CO2 and were subcultured two to three times a week. Potential cytotoxicity of the compounds was evaluated on tumor cells using the method of Gangadevi and Muthumary (2007[21]) (Klancnik et al., 2010[36]). The cells were grown as monolayers in growth RPMI-1640. The monolayers of 104 cells adhered at the bottom of the wells in a 96-well microtiter plate incubated for 24 h at 37 °C in a humidified incubator with 5 % CO2. The monolayers were then washed with sterile phosphate buffered saline (0.01 M pH 7.2) and simultaneously the cells were treated with 100 µL from different dilutions of tested sample in fresh maintenance medium and incubated at 37 °C. A control of untreated cells was made in the absence of tested sample. Positive controls containing doxorubicin were also tested as a reference drug for comparison. Six wells were used for each concentration of the test sample. Every 24 hours an observation under the inverted microscope was made. The number of the surviving cells was determined by staining the cells with crystal violet (Mosmann, 1983[42]; Gangadevi and Muthumary, 2007[21]) followed by cell lysing using 33 % glacial acetic acid and reading the absorbance at 590 nm using microplate reader (SunRise, TECAN, Inc, USA) after well mixing. The absorbance values from untreated cells were considered as 100 % proliferation. The number of viable cells was determined using microplate reader as previously mentioned before and the percentage of […] was calculated as [1-(ODt/ODc)] x 100 % where ODt is the mean optical density of wells treated with the tested sample and ODc is the mean optical density of untreated cells. The relation between surviving cells and drug concentration was plotted to get the survival curve of each tumor cell line after treatment with the specified compound. The 50 % inhibitory concentration (IC50), the concentration required to cause toxic effects in 50 % of intact cells, was estimated from graphic plots.
The in vitro cytotoxic activity was performed by MTT assay (Mosmann, 1983[42]; Alley et al., 1988[6]) against three human carcinoma cell lines: Human colon carcinoma (HCT-116), human breast adenocarcinoma (MCF-7), and human hepatocellular carcinoma (HEPG-2).

Row | SMILES | IC50 [µg/mL]
1 | N#CC1=C(N)Oc2c(N)cc3ccccc3c2C1c1ccc(Cl)cc1 (stereo not shown) [4b, 3,5-diamino-1-(4-chlorophenyl)-1H-benzo[f]chromene-2-carbonitrile] | 0.3 to 2 (≈ 0.863 to 5.75 µM)
2 | Cc1ccc(C2C(C#N)=C(N)Oc3c(N)cc4ccccc4c32)cc1 (stereo not shown) [4c, 3,5-diamino-1-(p-tolyl)-1H-benzo[f]chromene-2-carbonitrile] | 0.3 to 2 (≈ 0.916 to 6.11 µM)
3 | COc1ccc(N=Nc2cc3c(cc2O)OC(N)=C(C#N)C3c2ccc(F)cc2)cc1 (stereo not shown) [13b, 2-Amino-4-(4-fluoro-phenyl)-7-hydroxy-6-(4-methoxy-phenylazo)-4H-chromene-3-carbonitrile] | 2.41 to 5.4 (≈ 5.79 to 13 µM)
4 | N#CC1=C(N)Oc2c(ccc3c(N)cccc23)C1c1ccc(F)cc1 (stereo not shown) [7c] | 0.3 to 2 (≈ 0.905 to 6.04 µM)
5 | N#CC1=C(N)Oc2c(N)cc3ccccc3c2C1c1ccc(F)cc1 (stereo not shown) [4a, 3,5-diamino-1-(4-fluorophenyl)-1H-benzo[f]chromene-2-carbonitrile] | 0.3 to 2 (≈ 0.905 to 6.04 µM)

Each compound was assayed on human hepatocellular carcinoma (HEPG-2) (assay: Cytotoxic screening). Details: HepG2, read-out: IC50 HepG-2.
Format: cell-based
In short: (§1)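 Read-out is crystal violet staining (the text also names MTT), lysis in 33 % acetic acid, A590, with untreated cells as 100 %. IC50 was estimated graphically from survival curves.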

Row | SMILES | IC50 [µg/mL]
6 | N#CC1=C(N)Oc2c(N)cc3ccccc3c2C1c1ccc(Cl)cc1 (stereo not shown) [4b, 3,5-diamino-1-(4-chlorophenyl)-1H-benzo[f]chromene-2-carbonitrile] | 1 (≈ 2.88 µM)
7 | Cc1ccc(C2C(C#N)=C(N)Oc3c(N)cc4ccccc4c32)cc1 (stereo not shown) [4c, 3,5-diamino-1-(p-tolyl)-1H-benzo[f]chromene-2-carbonitrile] | 0.3 (≈ 0.916 µM)
8 | COc1ccc(N=Nc2cc3c(cc2O)OC(N)=C(C#N)C3c2ccc(F)cc2)cc1 (stereo not shown) [13b, 2-Amino-4-(4-fluoro-phenyl)-7-hydroxy-6-(4-methoxy-phenylazo)-4H-chromene-3-carbonitrile] | 5.4 (≈ 13 µM)
9 | N#CC1=C(N)Oc2c(ccc3c(N)cccc23)C1c1ccc(F)cc1 (stereo not shown) [7c] | 0.7 (≈ 2.11 µM)
10 | N#CC1=C(N)Oc2c(N)cc3ccccc3c2C1c1ccc(F)cc1 (stereo not shown) [4a, 3,5-diamino-1-(4-fluorophenyl)-1H-benzo[f]chromene-2-carbonitrile] | 0.3 (≈ 0.905 µM)

Each compound was assayed on Human colon carcinoma (HCT-116) (assay: Cytotoxic screening). Details: Homo sapiens, HCT-116; read-out: IC50 HCT-116.
Format: cell-based
In short: as §1

Row | SMILES | IC50 [µg/mL]
11 | N#CC1=C(N)Oc2c(N)cc3ccccc3c2C1c1ccc(Cl)cc1 (stereo not shown) [4b, 3,5-diamino-1-(4-chlorophenyl)-1H-benzo[f]chromene-2-carbonitrile] | 1.1 (≈ 3.16 µM)
12 | Cc1ccc(C2C(C#N)=C(N)Oc3c(N)cc4ccccc4c32)cc1 (stereo not shown) [4c, 3,5-diamino-1-(p-tolyl)-1H-benzo[f]chromene-2-carbonitrile] | 1.1 (≈ 3.36 µM)
13 | COc1ccc(N=Nc2cc3c(cc2O)OC(N)=C(C#N)C3c2ccc(F)cc2)cc1 (stereo not shown) [13b, 2-Amino-4-(4-fluoro-phenyl)-7-hydroxy-6-(4-methoxy-phenylazo)-4H-chromene-3-carbonitrile] | 2.41 (≈ 5.79 µM)
14 | N#CC1=C(N)Oc2c(ccc3c(N)cccc23)C1c1ccc(F)cc1 (stereo not shown) [7c] | 2 (≈ 6.04 µM)
15 | N#CC1=C(N)Oc2c(N)cc3ccccc3c2C1c1ccc(F)cc1 (stereo not shown) [4a, 3,5-diamino-1-(4-fluorophenyl)-1H-benzo[f]chromene-2-carbonitrile] | 1 (≈ 3.02 µM)

These compounds were tested on human breast adenocarcinoma (MCF-7) (assay: Cytotoxic screening). Details: Homo sapiens, MCF7; read-out: IC50 MCF-7.
Format: cell-based
In short: as §1

Row | SMILES | IC50 [µg/mL]
16 | N#CC1=C(N)Oc2c(N)cc3ccccc3c2C1c1ccc(Cl)cc1 (stereo not shown) [4b, 3,5-diamino-1-(4-chlorophenyl)-1H-benzo[f]chromene-2-carbonitrile] | 1 (≈ 2.88 µM)
17 | Cc1ccc(C2C(C#N)=C(N)Oc3c(N)cc4ccccc4c32)cc1 (stereo not shown) [4c, 3,5-diamino-1-(p-tolyl)-1H-benzo[f]chromene-2-carbonitrile] | 0.8 (≈ 2.44 µM)
18 | COc1ccc(N=Nc2cc3c(cc2O)OC(N)=C(C#N)C3c2ccc(F)cc2)cc1 (stereo not shown) [13b, 2-Amino-4-(4-fluoro-phenyl)-7-hydroxy-6-(4-methoxy-phenylazo)-4H-chromene-3-carbonitrile] | 3.78 (≈ 9.08 µM)
19 | N#CC1=C(N)Oc2c(ccc3c(N)cccc23)C1c1ccc(F)cc1 (stereo not shown) [7c] | 1.4 (≈ 4.23 µM)
20 | N#CC1=C(N)Oc2c(N)cc3ccccc3c2C1c1ccc(F)cc1 (stereo not shown) [4a, 3,5-diamino-1-(4-fluorophenyl)-1H-benzo[f]chromene-2-carbonitrile] | 1 (≈ 3.02 µM)

These compounds were tested on primary mixed neuronal in vitro culture (assay: Acute toxicity, LDH release). Details: 10 µM, 24 hrs of incubation.
Format: cell-based, rat
Description: In vitro experiments were carried out at the University of Prince Edward Island and approved by the Animal Care and Biosafety Committees, which adheres to the guidelines of the Canadian Council on Animal Care (protocol #14-041 and 15-028). Mixed neocortical cultures, containing both neurons and glia, were prepared from fetal rats at 17-18 days gestation. Briefly, embryonic tissue was extracted from untimed pregnant Sprague-Dawley rats by caesarean section and transferred to ice-cold Hanks Balanced Salt Solution (Gibco). Cortical brain tissue was carefully isolated by fine dissection using aseptic techniques. Cortices were minced in cold HBSS using a sterile razor blade prior to digestion with 0.0125 % trypsin. Dissociated cells were plated in poly-L-lysine (1 mg/ml, Sigma Aldrich) coated 96 well plates at a seeding density of 50000 cells/well in warm (37 °C) Dulbecco's Modified Eagle Medium (Gibco) containing 10 % iron-supplemented bovine calf serum (Hyclone) and 1 % antibiotic/antimycotic (Gibco). Cultures were allowed to adhere overnight in a humidified 37 °C incubator having 5 % CO2 and atmospheric oxygen. The following day, the media was replaced with warmed Neurobasal A Medium (Gibco) containing 0.5 mM L-glutamine (Gibco) and supplemented with 1 % B27, N2 and antibiotic/antimycotic (Gibco). Half-volume media changes were made every 4 days thereafter with experiments being carried out on 14-16 day old cultures. After 14 days in culture, the medium was replaced with deoxygenated unsupplemented glucose-free Neurobasal A containing either 10 or 100 µM of the novel compounds T3, T4, T5, T8, T9, T11, or T12. Control wells contained glucose-free medium plus vehicle - either 0.1 % ethanol or 0.1 % DMSO. Cultures were transferred to a humidified 37 °C incubator having 5 % CO2, 1.1 % O2 and the balance N2 for a period of 24 hours. Following OGD, an equal volume of normal supplemented Neurobasal A containing identical drug concentrations was added and cultures were transferred to normoxic conditions (5 % CO2 and atmospheric oxygen) for an additional 24 h. Cell viability was assessed by measuring LDH release from damaged cells. Control cultures were prepared in separate plates having supplemented Neurobasal A and being maintained in 5 % CO2 and atmospheric oxygen for the duration of the experiment. Toxicity was assessed in wells treated with 10 µM of each of the test compounds listed above. After 24 h an equal volume of culture media as added to each well to account for handling effects on experimental outcomes. Toxicity was assessed after an additional 24 h in culture by measuring LDH release from treated cells. At the end of each experiment, cell injury was assessed by measuring lactate dehydrogenase (LDH) released from damaged cells into the culture medium (Cytoscan LDH Assay, G Biosciences). LDH measurements represent the average of 7 replicate treatments/dose. The effect of OGD and drug treatments on LDH was expressed as a percent of LDH release compared to OGD and vehicle groups. […]
Lactate dehydrogenase (LDH) release in the medium is an enzymatic indicator that illustrates the loss of membrane integrity, apoptosis, or necrosis of a cell. Using a primary mixed neuronal in vitro culture, the cytotoxic effect of the chromene-based compounds (4a, 4c, 7c, 12c, 12k, 13g, and 13h) was assessed by lactate dehydrogenase (LDH) release from cells pretreated with different concentrations after 24 and 48 h of incubation (Figure 9A-C(Fig. 9)). […]

Row | SMILES | LDH release | LDH release more than vehicle
21 | Cc1ccc(C2C(C#N)=C(N)Oc3c(N)cc4ccccc4c32)cc1 (stereo not shown) [4c, 3,5-diamino-1-(p-tolyl)-1H-benzo[f]chromene-2-carbonitrile] | reduced the LDH release | 
22 | N#CC1=C(N)Oc2c(ccc3c(N)cccc23)C1c1ccc(F)cc1 (stereo not shown) [7c] |  | 2-3 folds
23 | N#CC1=C(N)Oc2c(N)cc3ccccc3c2C1c1ccc(F)cc1 (stereo not shown) [4a, 3,5-diamino-1-(4-fluorophenyl)-1H-benzo[f]chromene-2-carbonitrile] |  | 2-3 folds

Same assay, conditions: 100 µM, 24 hrs

Row | SMILES | LDH release
24 | Cc1ccc(C2C(C#N)=C(N)Oc3c(N)cc4ccccc4c32)cc1 (stereo not shown) [4c, 3,5-diamino-1-(p-tolyl)-1H-benzo[f]chromene-2-carbonitrile] | ineffective
25 | N#CC1=C(N)Oc2c(ccc3c(N)cccc23)C1c1ccc(F)cc1 (stereo not shown) [7c] | more LDH release compared to the vehicle
